The values that follow come from patent US10344025B2, “GLS1 inhibitors for treating disease” (Board of Regents, The University of Texas System, priority 2014, dated 2019).

One test relates to A549 cells. The test is described as follows: Proliferation Assay (A549 viability, Cell Titer Fluor, 72 hours). In kind it is cell-based. As to conditions: Homo sapiens, A549, 72 h. Summed up: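 A549 cells seeded at 1000 cells/well, rested 24 h, then exposed to compound in 0.5% DMSO for 72 h at 37 °C. Viability read by Cell Titer Fluor fluorescence; IC50 from four-parameter logistic fit.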

For test [1], the target named is purified recombinant human GAC (GLS1) (Homo sapiens (Human), UniProt O94925). The test is described as follows: GLS1 Enzymatic Activity Assay (dual-coupled enzymatic assay, resorufin/Amplex UltraRed readout).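 Further: glutamate from GAC coupled via glutamate oxidase and peroxidase to resorufin, read as fluorescence (ex 530, em 590 nm) kinetically or at 20 min, four-parameter logistic IC50 fit.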 In kind it is biochemical.
purified recombinant human GAC (GLS1), sequence (O94925 other isoform, or with tags, fused parts or gaps): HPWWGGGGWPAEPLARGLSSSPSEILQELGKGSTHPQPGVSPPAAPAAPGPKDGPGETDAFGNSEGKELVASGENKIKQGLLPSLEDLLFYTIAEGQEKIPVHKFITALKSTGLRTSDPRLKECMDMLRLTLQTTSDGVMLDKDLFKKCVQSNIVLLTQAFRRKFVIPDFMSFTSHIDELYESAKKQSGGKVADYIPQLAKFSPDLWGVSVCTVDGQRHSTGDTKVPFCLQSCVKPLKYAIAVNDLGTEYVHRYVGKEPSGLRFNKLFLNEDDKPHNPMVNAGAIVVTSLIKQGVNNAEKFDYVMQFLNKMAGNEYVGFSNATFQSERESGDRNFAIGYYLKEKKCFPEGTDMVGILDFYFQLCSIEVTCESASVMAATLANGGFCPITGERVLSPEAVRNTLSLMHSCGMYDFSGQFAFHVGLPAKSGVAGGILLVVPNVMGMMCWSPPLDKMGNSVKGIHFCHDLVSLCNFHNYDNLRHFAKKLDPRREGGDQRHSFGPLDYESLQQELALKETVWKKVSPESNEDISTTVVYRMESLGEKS

Each structure is given as a SMILES string.

Broadly, the EC50 is the concentration that produces a half-maximal response. Lower therefore signals an effect from little substance. Broadly, the IC50 is the concentration that gives 50% inhibition. `COc1cccc(CNC(=O)c2cn(CCC(F)Cn3cc(C(=O)NCc4cc(C(F)(F)F)ccn4)nn3)nn2)c1` (stereo not drawn) [Example 468, 1-[2-fluoro-4-(4-{[(3-methoxyphenyl)methyl]carbamoyl}-1H-1,2,3-triazol-1-yl)butyl]-N-{[4-(trifluoromethyl)pyridin-2-yl]methyl}-1H-1,2,3-triazole-4-carboxamide]: the 50% effective concentration (EC50) in the test on A549 cells is below 100 nM. In addition, in test [1], the half-maximal inhibitory concentration (IC50) is below 100 nM.

In turn, `O=C(NCc1ccc(OC(F)(F)F)cc1)c1cn(CCC(F)Cn2cc(C(=O)NCc3cc(C(F)(F)F)ccn3)nn2)nn1` (stereo not drawn) [Example 469, 1-{2-fluoro-4-[4-({[4-(trifluoromethoxy)phenyl]methyl}carbamoyl)-1H-1,2,3-triazol-1-yl]butyl}-N-{[4-(trifluoromethyl)pyridin-2-yl]methyl}-1H-1,2,3-triazole-4-carboxamide] registered an EC50 in the test with A549 cells below 100 nM. Also, the IC50 in test [1] was below 100 nM.

With `O=C(NCc1cc(C(F)(F)F)ccn1)c1cn(CCC(F)Cn2cc(C(=O)NCc3cc(C(F)(F)F)ccn3)nn2)nn1` (stereo not drawn) [Example 470, 1-{2-fluoro-4-[4-({[4-(trifluoromethyl)pyridin-2-yl]methyl}carbamoyl)-1H-1,2,3-triazol-1-yl]butyl}-N-{[4-(trifluoromethyl)pyridin-2-yl]methyl}-1H-1,2,3-triazole-4-carboxamide], in the test on A549 cells, the concentration giving a half-maximal response (EC50) is below 100 nM. Also, the IC50 in test [1] was below 100 nM.

As for `O=C(NCC1CCCC1)c1cn(CCC(F)Cn2cc(C(=O)NCc3cc(C(F)(F)F)ccn3)nn2)nn1` (stereo not drawn) [Example 471, 1-(4-{4-[(cyclopentylmethyl)carbamoyl]-1H-1,2,3-triazol-1-yl}-2-fluorobutyl)-N-{[4-(trifluoromethyl)pyridin-2-yl]methyl}-1H-1,2,3-triazole-4-carboxamide], in the test on A549 cells, the EC50 lay in the range of 100 to 500 nM. For the same molecule, the IC50 in test [1] is below 100 nM.

`O=C(NCC1CCCCO1)c1cn(CCC(F)Cn2cc(C(=O)NCc3cc(C(F)(F)F)ccn3)nn2)nn1` (stereo not drawn) [Example 472, 1-(2-fluoro-4-{4-[(oxan-2-ylmethyl)carbamoyl]-1H-1,2,3-triazol-1-yl}butyl)-N-{[4-(trifluoromethyl)pyridin-2-yl]methyl}-1H-1,2,3-triazole-4-carboxamide] displayed an EC50 in the test with A549 cells of 100 to 500 nM. The concentration for half-maximal inhibition (IC50) in test [1] fell in the range of 100 to 500 nM.

For the molecule `O=C(NCC1CCCOC1)c1cn(CCC(F)Cn2cc(C(=O)NCc3cc(C(F)(F)F)ccn3)nn2)nn1` (stereo not drawn) [Example 473, 1-(2-fluoro-4-{4-[(oxan-3-ylmethyl)carbamoyl]-1H-1,2,3-triazol-1-yl}butyl)-N-{[4-(trifluoromethyl)pyridin-2-yl]methyl}-1H-1,2,3-triazole-4-carboxamide], the EC50 with A549 cells fell in the range of 100 to 500 nM. Also, the 50% inhibitory concentration (IC50) in test [1] was in the range of 100 to 500 nM.

In the test on A549 cells, `O=C(NCc1cccc(C(F)(F)F)n1)c1cn(CCC(F)Cn2cc(C(=O)NCc3cc(C(F)(F)F)ccn3)nn2)nn1` (stereo not drawn) [Example 474, 1-{2-fluoro-4-[4-({[6-(trifluoromethyl)pyridin-2-yl]methyl}carbamoyl)-1H-1,2,3-triazol-1-yl]butyl}-N-{[4-(trifluoromethyl)pyridin-2-yl]methyl}-1H-1,2,3-triazole-4-carboxamide] showed a concentration for a half-maximal effect (EC50) below 100 nM. Also, the IC50 in test [1] was below 100 nM.

`CNC(=O)c1cn(CCC(F)Cn2cc(C(=O)NCc3cc(C(F)(F)F)ccn3)nn2)nn1` (stereo not drawn) [Example 475, 1-(3-fluoro-4-(4-((4-(trifluoromethyl)pyridin-2-yl)methylcarbamoyl)-1H-1,2,3-triazol-1-yl)butyl)-N-methyl-1H-1,2,3-triazole-4-carboxamide] gave a concentration giving a half-maximal response (EC50) with A549 cells of 100 to 500 nM. The IC50 in test [1] was 100 to 500 nM.

In turn, `O=C(NCc1cncc(C(F)(F)F)c1)c1cn(CCC(F)Cn2cc(C(=O)NCc3cc(C(F)(F)F)ccn3)nn2)nn1` (stereo not drawn) [Example 476, 1-{2-fluoro-4-[4-({[5-(trifluoromethyl)pyridin-3-yl]methyl}carbamoyl)-1H-1,2,3-triazol-1-yl]butyl}-N-{[4-(trifluoromethyl)pyridin-2-yl]methyl}-1H-1,2,3-triazole-4-carboxamide] returned an EC50 in the test with A549 cells below 100 nM. Besides, in test [1], the IC50 is below 100 nM.

Turning to `O=C(NCc1cccc(OC(F)(F)F)c1)c1cn(CCC(F)Cn2cc(C(=O)NCc3cncc(C(F)(F)F)c3)nn2)nn1` (stereo not drawn) [Example 477, 1-{2-fluoro-4-[4-({[3-(trifluoromethoxy)phenyl]methyl}carbamoyl)-1H-1,2,3-triazol-1-yl]butyl}-N-{[5-(trifluoromethyl)pyridin-3-yl]methyl}-1H-1,2,3-triazole-4-carboxamide], the 50% effective concentration (EC50) with A549 cells was below 100 nM. In addition, the IC50 in test [1] was below 100 nM.

As for `O=C(NCc1cncc(C(F)(F)F)c1)c1cn(CCC(F)Cn2cc(C(=O)NCc3cccc(OC(F)(F)F)c3)nn2)nn1` (stereo not drawn) [Example 478, 1-{3-fluoro-4-[4-({[3-(trifluoromethoxy)phenyl]methyl}carbamoyl)-1H-1,2,3-triazol-1-yl]butyl}-N-{[5-(trifluoromethyl)pyridin-3-yl]methyl}-1H-1,2,3-triazole-4-carboxamide], the concentration giving a half-maximal response (EC50) in the test on A549 cells is below 100 nM. Moreover, the IC50 in test [1] was below 100 nM.

In the test on A549 cells, `O=C(NCc1cc(OC(F)(F)F)ccc1F)c1cn(CCC(F)Cn2cc(C(=O)NCc3cncc(C(F)(F)F)c3)nn2)nn1` (stereo not drawn) [Example 479, 1-{2-fluoro-4-[4-({[2-fluoro-5-(trifluoromethoxy)phenyl]methyl}carbamoyl)-1H-1,2,3-triazol-1-yl]butyl}-N-{[5-(trifluoromethyl)pyridin-3-yl]methyl}-1H-1,2,3-triazole-4-carboxamide] gave an EC50 below 100 nM. In test [1], the half-maximal inhibitory concentration (IC50) was below 100 nM.

In the test with A549 cells, `O=C(NCc1cncc(C(F)(F)F)c1)c1cn(CC(F)CCc2nnc(C(=O)NCc3cccc(C(F)(F)F)c3)s2)nn1` (stereo not drawn) [Example 480, 5-{3-fluoro-4-[4-({[5-(trifluoromethyl)pyridin-3-yl]methyl}carbamoyl)-1H-1,2,3-triazol-1-yl]butyl}-N-{[3-(trifluoromethyl)phenyl]methyl}-1,3,4-thiadiazole-2-carboxamide] gave a concentration for a half-maximal effect (EC50) below 100 nM. The IC50 in test [1] was below 100 nM.

`O=C(NCc1ccc(C2CC2)nc1)c1cn(CC(F)CCc2nnc(C(=O)NCc3cccc(C(F)(F)F)c3)s2)nn1` (stereo not drawn) [Example 481, 5-[4-(4-{[(6-cyclopropylpyridin-3-yl)methyl]carbamoyl}-1H-1,2,3-triazol-1-yl)-3-fluorobutyl]-N-{[3-(trifluoromethyl)phenyl]methyl}-1,3,4-thiadiazole-2-carboxamide]: the concentration giving a half-maximal response (EC50) with A549 cells is below 100 nM. Besides, in test [1], the IC50 is below 100 nM.

In the case of `O=C(NCc1cncc(C(F)(F)F)c1)c1cn(CC(F)CCc2nnc(C(=O)NCc3cccc(OC(F)(F)F)c3)s2)nn1` (stereo not drawn) [Example 482, 5-{3-fluoro-4-[4-({[5-(trifluoromethyl)pyridin-3-yl]methyl}carbamoyl)-1H-1,2,3-triazol-1-yl]butyl}-N-{[3-(trifluoromethoxy)phenyl]methyl}-1,3,4-thiadiazole-2-carboxamide], in the test on A549 cells, the EC50 is below 100 nM. In addition, the IC50 in test [1] is below 100 nM.

Regarding `O=C(NCc1cccc(OC(F)(F)F)c1)c1cn(CC(F)CCc2nnc(C(=O)NCc3cncc(C(F)(F)F)c3)s2)nn1` (stereo not drawn) [Example 483, 5-{3-fluoro-4-[4-({[3-(trifluoromethoxy)phenyl]methyl}carbamoyl)-1H-1,2,3-triazol-1-yl]butyl}-N-{[5-(trifluoromethyl)pyridin-3-yl]methyl}-1,3,4-thiadiazole-2-carboxamide], the EC50 in the test on A549 cells was below 100 nM. Further, the IC50 in test [1] was below 100 nM.

In the test with A549 cells, `O=C(NCc1cccc(C(F)(F)F)c1)c1cn(CC(F)CCc2nnc(C(=O)NCc3cncc(C(F)(F)F)c3)s2)nn1` (stereo not drawn) [Example 484, 5-{3-fluoro-4-[4-({[3-(trifluoromethyl)phenyl]methyl}carbamoyl)-1H-1,2,3-triazol-1-yl]butyl}-N-{[5-(trifluoromethyl)pyridin-3-yl]methyl}-1,3,4-thiadiazole-2-carboxamide] came in with an EC50 below 100 nM. Moreover, the half-inhibitory concentration (IC50) in test [1] is below 100 nM.

In the test on A549 cells, `O=C(NCc1cncc(C(F)(F)F)c1)c1cn(CC(F)CCc2nnc(C(=O)NCc3cc(C(F)(F)F)ccn3)s2)nn1` (stereo not drawn) [Example 485, 5-{3-fluoro-4-[4-({[5-(trifluoromethyl)pyridin-3-yl]methyl}carbamoyl)-1H-1,2,3-triazol-1-yl]butyl}-N-{[4-(trifluoromethyl)pyridin-2-yl]methyl}-1,3,4-thiadiazole-2-carboxamide] came in with a concentration giving a half-maximal response (EC50) below 100 nM. Besides, the 50% inhibitory concentration (IC50) in test [1] is below 100 nM.

In the case of `O=C(Cc1cccc(OC(F)(F)F)c1)Nc1cn(CC(F)CCn2cc(C(=O)NCc3ccc(C(F)(F)F)cn3)nn2)nn1` (stereo not drawn) [Example 486, 1-[3-fluoro-4-(4-{2-[3-(trifluoromethoxy)phenyl]acetamido}-1H-1,2,3-triazol-1-yl)butyl]-N-{[5-(trifluoromethyl)pyridin-2-yl]methyl}-1H-1,2,3-triazole-4-carboxamide], the EC50 in the test with A549 cells was below 100 nM. In addition, in test [1], the IC50 was below 100 nM.

Turning to `O=C(Cc1cccc(OC(F)(F)F)c1)Nc1cn(CC(F)CCn2cc(C(=O)NCc3cccc(C(F)(F)F)n3)nn2)nn1` (stereo not drawn) [Example 487, 1-[3-fluoro-4-(4-{2-[3-(trifluoromethoxy)phenyl]acetamido}-1H-1,2,3-triazol-1-yl)butyl]-N-{[6-(trifluoromethyl)pyridin-2-yl]methyl}-1H-1,2,3-triazole-4-carboxamide], in the test on A549 cells, the EC50 is below 100 nM. In test [1], the IC50 was below 100 nM.

As to `O=C(NCc1cncc(C(F)(F)F)c1)c1cn(CC(F)CCc2nnc(C(=O)NCc3ccc(C(F)(F)F)cn3)s2)nn1` (stereo not drawn) [Example 488, 5-{3-fluoro-4-[4-({[5-(trifluoromethyl)pyridin-3-yl]methyl}carbamoyl)-1H-1,2,3-triazol-1-yl]butyl}-N-{[5-(trifluoromethyl)pyridin-2-yl]methyl}-1,3,4-thiadiazole-2-carboxamide], in the test on A549 cells, the EC50 was below 100 nM. Further, the half-maximal inhibitory concentration (IC50) in test [1] is below 100 nM.
